The subject of one test is RNA. Nature of the test: Analyte screening of rosamine library, fluorescence response. The protocol:
(§1) The rosamine derivative compounds were screened toward 47 different analytes that include proteins, polysaccharides, nucleic acids, and metal ions. The stock solution of each dye (50 μL) in HEPES (20 mM, pH=7.4) or PBS (20 mM, pH=7.4) was prepared, and diluted with the each analyte (50 μL, 1.0 mg/mL or 200 μM) in the same buffer solution. The final dye concentration varied from 0.5 μM to 10 μM. The fluorescence intensity fold changes of each dye in the presence of analytes were calculated by comparing the fluorescence intensity at the maximum emission wavelength with/without the analyte.

The next test has as its system DNA. Described as above. The protocol:
as §1

Molecules are shown by their SMILES. Entries after “also recorded” stand apart in the source; their conditions may differ.

Regarding `CC1=CC(C)(C)N(C)c2ccc3c(=O)c4ccc(N)cc4n(C)c3c21` [J], in the test on RNA, the “fluorescence response to RNA among 47 analytes” value was “selective response; also recorded: selective increase”.

For the molecule `CCN(CCCN(C)C)c1ccc2c(=O)c3ccc(N)cc3oc2c1` [L, 3-Amino-6-[(3-dimethylamino-propyl)-ethyl-amino]-xanthen-9-one], in the test with DNA, the “fluorescence response to DNA among 47 analytes” value is on record as “selective response; also recorded: selective increase”.
